Measured values: patent US8946266B2, “Substituted triazole and imidazole derivatives as gamma secretase modulators” (Janssen Pharmaceuticals, Inc., priority 2009, dated 2015)
Where two headings read alike, the source gives them in different places.

Assays:
[1] = system: Aβ42; assay: γ-secretase-modulating activity, Method 2: Aβ42 Alphalisa in supernatant of SKNBE2 cells carrying APP 695-wild type (Table 3b); format: cell-based; settings: overnight
Procedure: (§1) Screening was carried out using SKNBE2 cells carrying the APP 695-wild type, grown in Dulbecco's Modified Eagle's Medium/Nutrient mixture F-12 (DMEM/NUT-mix F-12) (HAM) provided by Invitrogen (cat no. 10371-029) containing 5% Serum/Fe supplemented with 1% non-essential amino acids, 1-glutamine 2 mM, Hepes 15 mM, penicillin 50 U/ml (units/ml) en streptomycin 50 μg/ml. Cells were grown to near confluency.
(§2) The screening was performed using a modification of the assay as described in Citron et al (1997) Nature Medicine 3: 67. Briefly, cells were plated in a 384-well plate at 10^4 cells/well in Ultraculture (Lonza, BE12-725F) supplemented with 1% glutamine (Invitrogen, 25030-024), 1% non-essential amino acid (NEAA), penicillin 50 U/ml en streptomycin 50 μg/ml in the presence of test compound at different test concentrations. The cell/compound mixture was incubated overnight at 37° C., 5% CO2. The next day the media were assayed by two sandwich immuno-assays, for Aβ42 and Aβtotal.
(§3) Aβtotal and Aβ42 concentrations were quantified in the cell supernatant using the Aphalisa technology (Perkin Elmer). Alphalisa is a sandwich assay using biotinylated antibody attached to streptavidin coated donorbeads and antibody conjugated to acceptor beads. In the presence of antigen, the beads come into close proximity. The excitation of the donor beads provokes the release of singlet oxygen molecules that trigger a cascade of energy transfer in the acceptor beads, resulting in light emission. To quantify the amount of Aβ42 in the cell supernatant, monoclonal antibody specific to the C-terminus of Aβ42 (JRF/cAβ42/26) was coupled to the receptor beads and biotinylated antibody specific to the N-terminus of Aβ (JRF/AβN/25) was used to react with the donor beads. To quantify the amount of Aβ total in the cell supernatant, monoclonal antibody specific to the N-terminus of Aβ (JRF/AβN/25) was coupled to the receptor beads and biotinylated antibody specific to the mid region of Aβ (biotinylated 4G8) was used to react with the donor beads.
To obtain the values reported in Table 3b, the data were calculated as percentage of the maximum amount of amyloid Beta 42 measured in the absence of the test compound.
(§4) The sigmoidal dose response curves were analyzed using non-linear regression analysis with percentage of the control plotted against the log concentration of the compound. A 4-parameter equation was used to determine the IC50.
(§5) The IC50 values are shown in Table 3b (Aβtot means Aβtotal).

[2] = system: Aβtotal; assay: γ-secretase-modulating activity, Method 2: Aβtotal Alphalisa in supernatant of SKNBE2 cells carrying APP 695-wild type (Table 3b); format: cell-based; settings: overnight, read-out: IC50 Aβtot
Procedure: as §1, §2, §3, §4, §5

SMILES | IC50 [1] | IC50 [2] | IC50 ([1]; Homo sapiens) | IC50 ([2]; Homo sapiens)
COc1nc(-c2nc(C)n(C(C)c3ccc(F)cc3)n2)ccc1-n1cnc(C)c1 (racemic) [Compound 69] | 1260 nM | > 10000 nM |  | 
COc1cc(-c2nc(N3CCC(c4cccc(C(F)(F)F)c4)C3)n(C(C)C)n2)ccc1-n1cnc(C)c1 (racemic) [Compound 74] | 251 nM | 6460 nM |  | 
COc1cc(-c2nc(N3CCCC(C(F)(F)F)C3)n(C(C)C)n2)ccc1-n1cnc(C)c1 (racemic) [Compound 75] | 676 nM | 6460 nM |  | 
COc1cc(-c2nc(N3CCCC3)n(C(C)c3ccc(F)cc3)n2)ccc1-n1cnc(C)c1 (racemic) [Compound 76] | 851 nM | 12600 nM |  | 
COc1cc(-c2nc(C(C)(C)O)n(C(C)c3ccc(F)cc3)n2)ccc1-n1cnc(C)c1 (racemic) [Compound 300] | 871 nM | > 10000 nM |  | 
COc1cc(-c2n[nH]c(-c3ccc(F)cc3)n2)ccc1-n1cnc(C)c1 [Compound 4] |  |  | 646 nM | > 10000 nM
COc1cc(-c2nc(-c3ccc(F)cc3)n(C(C)C)n2)ccc1-n1cnc(C)c1 [Compound 5] |  |  | 170 nM | > 10000 nM
COc1cc(-c2n[nH]c(-c3cccc(C(F)(F)F)c3)n2)ccc1-n1cnc(C)c1 [Compound 6] |  |  | 309 nM | > 10000 nM
COc1cc(-c2nc(-c3cccc(C(F)(F)F)c3)nn2C)ccc1-n1cnc(C)c1 [Compound 8] | 4270 nM | > 10000 nM |  | 
COc1cc(-c2nc(Nc3ccc(F)cc3C(F)(F)F)nn2C)ccc1-n1cnc(C)c1 [Compound 16] | 309 nM | > 10000 nM |  | 
COc1cc(-c2nc3n(n2)CCCc2ccccc2-3)ccc1-n1cnc(C)c1 [Compound 17] |  |  | 407 nM | > 10000 nM
COc1cc(-c2nc(C)n(-c3ccccc3C(F)(F)F)n2)ccc1-n1cnc(C)c1 [Compound 19] |  |  | 162 nM | > 10000 nM
COc1cc(-c2nc(Cc3ccc(F)cc3)n(C)n2)ccc1-n1cnc(C)c1 [Compound 22] | 479 nM | > 10000 nM |  | 
COc1cc(-c2nc(-c3ccccc3Cl)nn2C)ccc1-n1cnc(C)c1 [Compound 23] | 5010 nM | > 10000 nM |  | 
COc1cc(-c2nc(C)n(-c3cccc(C(F)(F)F)c3)n2)ccc1-n1cnc(C)c1 [Compound 30] | 295 nM | > 10000 nM |  | 
COc1cc(-c2nc(C(C)C)n(-c3ccc(F)cc3)n2)ccc1-n1cnc(C)c1 [Compound 31] | 447 nM | > 10000 nM |  | 
COc1cc(-c2n[nH]c(C3CCCCC3)n2)ccc1-n1cnc(C)c1 [Compound 33] | 269 nM | > 10000 nM |  | 
COc1cc(-c2nc(N3CC(C)OC(C)C3)n(C)n2)ccc1-n1cnc(C)c1 (centres unmarked) [Compound 35] | 776 nM | > 10000 nM |  | 
COc1cccc(-c2nc(-c3ccc(-n4cnc(C)c4)c(OC)c3)nn2C)c1 [Compound 36] | 575 nM | > 10000 nM |  | 
COc1cc(-c2nc(-c3ccc(F)cc3)n(C)n2)ccc1-n1cnc(C)c1 [Compound 40] | 355 nM | > 10000 nM |  | 
COc1cc(-c2nc(-c3ccc(F)cc3)n(C3CCCC3)n2)ccc1-n1cnc(C)c1 [Compound 41] | 407 nM | > 10000 nM |  | 
COc1cc(-c2nc(C3(c4ccc(F)cc4)CC3)n(C)n2)ccc1-n1cnc(C)c1 [Compound 47] | 302 nM | 3240 nM |  | 
COc1cc(-c2nc(Nc3cc(F)c(F)c(F)c3)n(C)n2)ccc1-n1cnc(C)c1 [Compound 48] | 245 nM | 6920 nM |  | 
COc1cc(-c2nc3n(n2)C(C)CCC3c2ccc(F)cc2C)ccc1-n1cnc(C)c1 (centres unmarked) [Compound 363] | 407 nM |  |  | 
COc1cc(-c2nc(C3CCc4ccccc4N3)n(C)n2)ccc1-n1cnc(C)c1 (centres unmarked) [Compound 365] |  |  | 447 nM | 
COc1cc(-c2nc(C3CCc4ccccc4N3C)n(C)n2)ccc1-n1cnc(C)c1 (centres unmarked) [Compound 366] |  |  | 513 nM | 

Further lines, results first:

IC50 [1] | IC50 [2] | IC50 ([1]; Homo sapiens) | IC50 ([2]; Homo sapiens) | SMILES
50 nM | 8510 nM |  |  | COc1cc(-c2nc(N3CCCC(c4ccccc4)C3)n(C)n2)ccc1-n1cnc(C)c1 (racemic) [Compound 78]
19 nM | 5010 nM |  |  | CCC(C)n1nc(-c2ccc(-n3cnc(C)c3)c(OC)c2)nc1Nc1cc(C(F)(F)F)ccc1F (racemic) [Compound 179]
62 nM |  |  |  | COc1cc(-c2nc(Nc3cc(OC4CCOC4)ccc3F)n(C)n2)ccc1-n1cnc(C)c1 (racemic) [Compound 358]
117 nM | > 10000 nM |  |  | COc1cc(-c2nc(-c3cccc(C(F)(F)F)c3)n(C)n2)ccc1-n1cnc(C)c1 [Compound 7]
240 nM | > 10000 nM |  |  | COc1cc(-c2nc(C3CCCCC3)n(C)n2)ccc1-n1cnc(C)c1 [Compound 34]
85 nM | 11200 nM |  |  | COc1cccc(-c2nc(-c3ccc(-n4cnc(C)c4)c(OC)c3)nn2C(C)C)c1 [Compound 37]
158 nM | > 10000 nM |  |  | COc1cc(-c2nc(-c3ccccc3C(F)(F)F)n(C)n2)ccc1-n1cnc(C)c1 [Compound 38]
148 nM | > 10000 nM |  |  | COc1cc(-c2nc(-c3ccc(-n4cnc(C)c4)c(OC)c3)nn2C)ccc1Cl [Compound 43]
85 nM | > 10000 nM |  |  | COc1cc(-c2nc(/C=C/c3ccc(F)cc3)n(C)n2)ccc1-n1cnc(C)c1 [Compound 45]
138 nM | 8510 nM |  |  | COc1cc(-c2nc(Cc3ccc(F)cc3C(F)(F)F)n(C)n2)ccc1-n1cnc(C)c1 [Compound 46]
44 nM |  |  |  | COc1cc(-c2nc(Nc3cc(C)ccc3F)n(C)n2)ccc1-n1cnc(C)c1 [Compound 350]
28 nM |  |  |  | COc1cc(-c2nc(Nc3cc(C)ccc3C(F)(F)F)n(C)n2)ccc1-n1cnc(C)c1 [Compound 351]
60 nM |  |  |  | COc1cc(-c2nc(Nc3ccc(C)cc3F)n(C)n2)ccc1-n1cnc(C)c1 [Compound 352]
22 nM |  |  |  | CCOc1ccc(F)c(Nc2nc(-c3ccc(-n4cnc(C)c4)c(OC)c3)nn2C)c1 [Compound 354]
135 nM |  |  |  | COCCOc1ccc(F)c(Nc2nc(-c3ccc(-n4cnc(C)c4)c(OC)c3)nn2C)c1 [Compound 355]
20 nM |  |  |  | COc1cc(-c2nc(Nc3cc(OCC4CC4)ccc3F)n(C)n2)ccc1-n1cnc(C)c1 [Compound 356]
7 nM |  |  |  | COc1cc(-c2nc(Nc3cc(C(C)(C)C)ccc3F)n(C)n2)ccc1-n1cnc(C)c1 [Compound 357]
240 nM |  |  |  | COc1nc(-c2nc3n(n2)CCC[C@@H]3c2ccc(F)cc2C)ccc1-n1cnc(C)c1 [Compound 360]
83 nM |  |  |  | COc1ccc(F)c(C2CCCn3nc(-c4ccc(-n5cnc(C)c5)c(OC)c4)nc32)c1 (centres unmarked) [Compound 364]
78 nM |  |  |  | COc1cc(-c2nc(Nc3ccccc3OC(C)C)n(C)n2)ccc1-n1cnc(C)c1 [Compound 367]
66 nM |  |  |  | COc1nc(-c2nc3n(n2)CCC(C)C3c2ccc(F)cc2)ccc1-n1cnc(C)c1 (centres unmarked) [Compound 368]
123 nM |  |  |  | COc1cc(-c2nc3n(n2)CCC(C)C3c2ccc(F)cc2)ccc1-n1cnc(C)c1 (centres unmarked) [Compound 369]
36 nM |  |  |  | COc1nc(-c2nc3n(n2)CCOC3c2cc(C(F)(F)F)ccc2C)ccc1-n1cnc(C)c1 (centres unmarked) [Compound 370]
40 nM |  |  |  | COc1cc(-c2nc3n(n2)CCOC3c2cc(C(F)(F)F)ccc2C)ccc1-n1cnc(C)c1 (centres unmarked) [Compound 371]
62 nM |  |  |  | COc1nc(-c2nc3n(n2)CCOC3c2cc(OC(F)(F)F)ccc2F)ccc1-n1cnc(C)c1 (centres unmarked) [Compound 374]
